Reference: patent publication US11478483B2, “Method of treating hypertension” (Cipla Limited, priority 2017, dated 2022)
“And” between values parts separate entries of the source, which are not always exact repeats. Equal entries are not always repeated. Structures can show the parent of a compound that is named as a salt.

Assays:
[1] = tested on: rats with monocrotaline induced pulmonary arterial hypertension; experiment: Pulmonary arterial hypertension efficacy model: monocrotaline rat, hemodynamic evaluation; assay type: in vivo, Male Sprague-Dawley rats; settings: for Right Ventricle (RV), Mean / Right Ventricle/Body Weight, Mean / Right Ventricular Pressure, Mean / Right Ventricular Systolic Pressure (RVSP), Mean: group mean; for Right Ventricle (RV), Mean / Right Ventricle/Body Weight, Mean / Right Ventricular Pressure, Mean / Right Ventricular Systolic Pressure (RVSP), Mean / Right Ventricle (RV) / Right Ventricle/Body Weight / Right Ventricular Pressure / Right Ventricular Systolic Pressure (RVSP): MCT 50 mg/kg s.c., Day 28; for Right Ventricle (RV) / Right Ventricle/Body Weight / Right Ventricular Pressure / Right Ventricular Systolic Pressure (RVSP): individual animals
Description: The studies were conducted for hemodynamic evaluation of quetiapine in anesthetized sprague dawley rats treated with monocrotaline (“MCT”) to induce pulmonary arterial hypertension. Sildenafil was used as an internal control to compare the effects of Quetiapine.
The effects of Quetiapine were evaluated in rats with monocrotaline induced pulmonary arterial hypertension using sildenafil as standard care treatment. Male Sprague-Dawley rats were orally administered vehicle, Quetiapine (40 mg/kg, divided into a BID regimen given every day for 28 days starting on Day 1), or sildenafil (100 mg/kg, administered once daily) (n=12 in each group). Rats received a single injection of monocrotaline (50 mg/kg, s.c.) on Study Day 1. On the twenty-eighth day following monocrotaline dosing, the rats were anesthetized with ketamine/xylazine for terminal monitoring of pulmonary and systemic arterial pressures along with heart rate.
Vehicle (0.5% Methylcellulose+0.2% Tween 80 in deionized water, Quetiapine (40 mg/kg dib for 28 days; Sildenafil ([…], administered once daily)
Male Sprague-Dawley rats in groups I, II, III and IV and V were administered 50 mg/kg of body weight of Monocrotaline in DMSO subcutaneously to induce PAH on day 1. The DMSO group (Group I, negative control) received a single dose of DMSO subcutaneously on day 1. The vehicle group received 5 ml of vehicle every morning. The Quetiapine as well as sildenafil groups were orally administered Quetiapine (40 mg/kg, divided into a BID regimen given every day for 28 days starting on Day 1), or sildenafil (100 mg/kg, administered once daily). On the twenty-eighth day after monocrotaline dosing, the rats were anesthetized with ketamine/xylazine for terminal monitoring of pulmonary and systemic arterial pressures along with heart rate.

[2] = after oral administration; cited from earlier work
[3] = Sildenafil 100 mg/kg p.o. once daily
[4] = Quetiapine 40 mg/Kg bid p.o. for 28 days

CCCc1nn(C)c2c(=O)[nH]c(-c3cc(S(=O)(=O)N4CCN(C)CC4)ccc3OCC)nc12 [Sildenafil]
Right Ventricle (RV), Mean [1, 3]: 0.247 g | Right Ventricle/Body Weight, Mean [1, 3]: 0.0006 g | Right Ventricular Pressure, Mean [1, 3]: 13.929 mmHg | Right Ventricular Systolic Pressure (RVSP), Mean [1, 3]: 29.648 mmHg | Right Ventricle (RV) [1, 3]: 0.236 g and 0.440 g and 0.228 g and 0.207 g and 0.232 g and 0.308 g and 0.229 g and 0.261 g and 0.083 g | Right Ventricle/Body Weight [1, 3]: 0.0007 g (3×) and 0.0009 g and 0.0006 g (4×) and 0.0003 g | Right Ventricular Pressure [1, 3]: 16.804 mmHg and 11.481 mmHg and 15.226 mmHg and 11.673 mmHg and 14.427 mmHg and 14.139 mmHg and 16.310 mmHg and 12.947 mmHg and 12.352 mmHg | Right Ventricular Systolic Pressure (RVSP) [1, 3]: 33.864 mmHg and 23.627 mmHg and 31.322 mmHg and 24.486 mmHg and 29.450 mmHg and 31.316 mmHg and 32.922 mmHg and 34.262 mmHg and 25.579 mmHg

OCCOCCN1CCN(C2=Nc3ccccc3Sc3ccccc32)CC1 [Quetiapine fumarate]
time to reach peak plasma concentrations [2]: 1.5 h

OCCOCCN1CCN(C2=Nc3ccccc3Sc3ccccc32)CC1 [Quetiapine]
activity in controlling or reducing PAH compared with Sildenafil ([1]; MCT rats, Quetiapine 40 mg/kg bid vs Sildenafil 100 mg/kg): comparable among with Sildenafil activity | systolic and mean pulmonary arterial pressures compared to the vehicle group ([1]; after 28 days, Quetiapine 40 mg/kg bid, MCT rats): differences in systolic and mean pulmonary arterial pressures | Right Ventricle (RV), Mean [1, 4]: 0.276 g | Right Ventricle/Body Weight, Mean [1, 4]: 0.0008 g | Right Ventricular Pressure, Mean [1, 4]: 22.414 mmHg | Right Ventricular Systolic Pressure (RVSP), Mean [1, 4]: 47.511 mmHg | Right Ventricle (RV) [1, 4]: 0.336 g and 0.337 g and 0.312 g and 0.260 g and 0.193 g and 0.353 g and 0.225 g and 0.276 g and 0.190 g | Right Ventricle/Body Weight [1, 4]: 0.0010 g (3×) and 0.0007 g and 0.0006 g (3×) and 0.0012 g and 0.0008 g | Right Ventricular Pressure [1, 4]: 27.940 mmHg and 21.646 mmHg and 22.967 mmHg and 16.792 mmHg and 19.956 mmHg and 24.109 mmHg and 28.929 mmHg and 18.440 mmHg and 20.951 mmHg | Right Ventricular Systolic Pressure (RVSP) [1, 4]: 54.140 mmHg and 47.463 mmHg and 43.052 mmHg and 36.213 mmHg and 41.515 mmHg and 68.747 mmHg and 54.503 mmHg and 37.045 mmHg and 44.925 mmHg
